Experiment: Permeability for probe polymers and dyes, and its temperature dependence, by confocal imaging
Type: physicochemical
Conditions: independent of their charge
Protocol: Monodisperse spheres (d=5.94 μm) of a weakly polymerized melamine-formaldehyde resin were used as templates (Microparticle GmbH). The particles were covered by alternating adsorption of sodium polystyrene sulfonate PSS (MW 70 000 g mol^−1, Aldrich) and polyallylamine hydrochloride PAH (MW 70 000 g mol^−1, Aldrich) from an aqueous solution of 10^−2 M PSS in 0.1 M sodium chloride. After 8 layers the core was dissolved in 0.1 M hydrochloric acid. The decomposition products were removed by washing with acid and an aqueous solution of 10^−2 M NaCl. Hollow polyelectrolyte capsules remained. […]
For the study of the permeability, fluorescence labeled polymers were used. […] The MW of the polymer was determined being 120 000 g/mol by gel permeation chromatography. […]
Laser scanning microscopy was performed for the determination of the loading grade of the capsules. […] The amounts of polymer/monomer in the interior were determined by integration of the fluorescence intensity inside the capsules. The exact concentration was taken from calibration curves, determined for each fluorescent probe separately. […]
The permeability of the capsules was studied for positively (PAH) and negatively charged (PSS), zwitterionic (albumine) and noncharged (dextran) fluorescent polymers (dextran). […] Then, the fluorescence intensity in the center of the capsules was measured by confocal imaging. […]

penetration of the capsule wall by small dye molecules | Molecule
can penetrate the capsule wall | rhodamine
can penetrate the capsule wall | CN(C)c1ccc2cc3ccc(N(C)C)cc3nc2c1 [acridine orange]

From patent publication US20040013721A1, “Controlled and sustained release properties of polyelectrolyte multilayer capsules” (priority 2000, published 2004)
